Source: patent US5068251A, “Lipoxygenase inhibiting compounds” (Abbott Laboratories, priority 1988, dated 1991)

Legend:
[1] = biological target: T1, 5-lipoxygenase (Rattus norvegicus, UniProt P12527); test: Inhibition of 5-lipoxygenase activity in 20,000×g supernatant from homogenized RBL-1 cells; type: biochemical; conditions: linear regression of percentage inhibition versus log inhibitor concentration, read-out: IC50 (In vitro 5-lipoxygenase inhibitory potency)
T1 construct: 20,000×g supernatant from homogenized RBL-1 cells; endogenous in cells; host or cells: RBL-1 cells (20,000×g supernatant of the homogenate)
T1 sequence (P12527 1-673): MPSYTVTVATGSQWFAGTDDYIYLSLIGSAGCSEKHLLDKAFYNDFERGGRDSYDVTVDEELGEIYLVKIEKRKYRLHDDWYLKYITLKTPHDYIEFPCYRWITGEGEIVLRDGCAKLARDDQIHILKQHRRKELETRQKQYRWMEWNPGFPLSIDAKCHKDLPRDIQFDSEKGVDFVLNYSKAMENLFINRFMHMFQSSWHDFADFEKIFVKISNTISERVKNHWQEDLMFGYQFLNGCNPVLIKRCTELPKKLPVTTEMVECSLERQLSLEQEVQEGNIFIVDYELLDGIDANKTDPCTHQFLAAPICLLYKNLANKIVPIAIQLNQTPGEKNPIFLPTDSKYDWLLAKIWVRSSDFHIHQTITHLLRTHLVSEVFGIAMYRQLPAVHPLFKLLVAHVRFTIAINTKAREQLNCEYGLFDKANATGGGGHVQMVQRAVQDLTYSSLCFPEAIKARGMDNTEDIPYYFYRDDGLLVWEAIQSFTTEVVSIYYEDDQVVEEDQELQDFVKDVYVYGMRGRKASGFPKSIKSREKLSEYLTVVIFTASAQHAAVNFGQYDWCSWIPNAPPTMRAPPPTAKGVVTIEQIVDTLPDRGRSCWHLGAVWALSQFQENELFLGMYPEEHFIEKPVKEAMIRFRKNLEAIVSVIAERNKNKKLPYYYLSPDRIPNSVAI
Experimental: Inhibition of 5-lipoxygenase activity was determined using the 20,000×g supernatant from homogenized RBL-1 cells in a similar manner as that described by Dyer and coworkers (Dyer, R. D.; Haviv, F.; Hanel, A. M.; Bornemier, D. A.; Carter, G. W. Fed. Proc , Fed. Am. Soc. Exp. Biol. 1984, 43, 1462A).

[2] = tested on: leukotriene biosynthesis; test: Inhibition of leukotriene biosynthesis in vivo, rat peritoneal anaphylaxis model; conditions: 40 mg/kg i.p., 30 minutes prior to antigen challenge, peritoneal fluids collected 15 minutes after challenge, versus mean of control group
Experimental: Inhibition of the biosynthesis of leukotrienes in vivo after intraperitoneal administration of compound was determined using a rat peritoneal anaphylaxis model. In this model rats were injected intraperitoneally (ip) with rabbit antibody to bovine serum albumin (BSA) and three hours later injected ip with BSA to induce an antgen-antibody response. Rats were sacrificed 15 minutes after this challenge and the peritoneal fluids were collected and analyzed for leukotriene levels. Test compound was injected intraperitoneal 30 minutes prior to the antigen challenge. Percent inhibition values were determined by comparing the treatment group to the mean of the control group.

| Compound | IC50 [1] [µM] | inhibition of leukotriene biosynthesis in vivo [2] [%] |
| --- | --- | --- |
| CC(C)Cc1ccc(C(C)NC(=O)NO)cc1 (stereo not drawn) [Example 3, N'-hydroxy-N-[l-(4-(2'methylpropyl)phenyl)ethyl]urea] | 2.9 | – |
| CC(C)Cc1ccc(C(C)CNC(=O)NO)cc1 (stereo not drawn) [Example 4, N'-hydroxy-N-[2-(4-(2'-methylpropyl)phenyl)]urea] | 1.9 | – |
| COc1ccc2c(c1)c(CNC(=O)N(C)O)c(C)n2C(=O)c1ccc(Cl)cc1 [Example 1, N'-hydroxy-N'-methyl-N-(4'-chlorobenzoyl-5-methoxy-2-methyl-3-indolyl)methyl urea] | – | 81 |
